From US20250290117A1, “MOLECULAR PHENOTYPIC ANTIMICROBIAL SUSCEPTIBILITY TESTING” (priority 2024, published 2025)

Experiments:
Type in all cases: cell-based
Escherichia coli [1] = experiment: Molecular phenotypic antimicrobial susceptibility test (extraction or DNA purification prior to PCR)
How it was run: (§1)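 Patient specimens in boric acid were grown in culture medium, adjusted to 0.5 McFarland by optical density, then incubated 12-16 hours with antimicrobials in Mueller Hinton Broth at breakpoint concentrations. Growth was read by semi-quantitative PCR, alongside a no-antimicrobial well for pathogen load.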

Escherichia coli [2] = experiment: Traditional culture-based antimicrobial susceptibility test
How it was run: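 E. coli isolates underwent conventional growth, isolation and exposure to antimicrobials, giving a culture-based susceptibility call for each agent.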

[3] = system: pathogens of clinical samples; experiment: Molecular phenotypic antimicrobial susceptibility test of clinical samples, extraction DNA purification step prior to PCR (Table 6)
How it was run: as §1

[4] = system: pathogens of clinical samples; experiment: Molecular phenotypic antimicrobial susceptibility test of clinical samples, direct PCR without a separate DNA purification step (Table 6)
How it was run: as §1

[5] = E. coli, clinical sample of r10-r24
[6] = E. coli, clinical sample of r158-r172
[7] = K. aerogenes, clinical sample of r136-r150
[8] = K. pneumoniae, clinical sample of r121-r135
[9] = M. morganii, clinical sample of r55-r69
[10] = M. morganii, clinical sample of r70-r84
[11] = P. mirabilis, clinical sample of r25-r39
[12] = P. mirabilis, clinical sample of r40-r54

**Q.** Which results are given for Piperacillin/Tazobactam?
**A.** Ct at Sensitive Breakpoint (Escherichia coli [1]; E. coli isolate 1, Ct at control (average) 21.238): 25.572; Molecular Antimicrobial Susceptibility Result (Escherichia coli [1]; E. coli isolate 1, at sensitive breakpoint): Sensitive (Antimicrobial wells with pathogen load detected below the control wells (typically >2 cycle thresholds later) may be reported as Sensitive); Ct at Sensitive Breakpoint (Escherichia coli [1]; E. coli isolate 2, Ct at control (average) 21.270): 22.685; Molecular Antimicrobial Susceptibility Result (Escherichia coli [1]; E. coli isolate 2, at sensitive breakpoint): Sensitive (Antimicrobial wells with pathogen load detected below the control wells (typically >2 cycle thresholds later) may be reported as Sensitive); Ct at Sensitive Breakpoint (Escherichia coli [1]; E. coli isolate 3, Ct at control (average) 22.0995): 20.541; Molecular Antimicrobial Susceptibility Result (Escherichia coli [1]; E. coli isolate 3, at sensitive breakpoint): Sensitive (Antimicrobial wells with pathogen load detected below the control wells (typically >2 cycle thresholds later) may be reported as Sensitive); Ct at Sensitive Breakpoint (Escherichia coli [1]; E. coli isolate 4, Ct at control (average) 17.5733): 26.05; Molecular Antimicrobial Susceptibility Result (Escherichia coli [1]; E. coli isolate 4, at sensitive breakpoint): Sensitive (Antimicrobial wells with pathogen load detected below the control wells (typically >2 cycle thresholds later) may be reported as Sensitive); Ct at Sensitive Breakpoint (Escherichia coli [1]; E. coli isolate 5, Ct at control (average) 21.0933): 25.44; Molecular Antimicrobial Susceptibility Result (Escherichia coli [1]; E. coli isolate 5, at sensitive breakpoint): Sensitive (Antimicrobial wells with pathogen load detected below the control wells (typically >2 cycle thresholds later) may be reported as Sensitive); Traditional Culture Results (Escherichia coli [2]; E. coli #1 - WDCM 00090 - 6.2×E3): Sensitive; Traditional Culture Results (Escherichia coli [2]; E. coli #2 - WDCM 00090 - 6.2×E3): Sensitive; Traditional Culture Result (Escherichia coli [2]; E. coli isolate 1 (Table 3)): Sensitive; Traditional Culture Result (Escherichia coli [2]; E. coli isolate 2 (Table 3)): Sensitive; Traditional Culture Result (Escherichia coli [2]; E. coli isolate 3 (Table 3)): Sensitive; Traditional Culture Result (Escherichia coli [2]; E. coli isolate 4 (Table 3)): Sensitive; Traditional Culture Result (Escherichia coli [2]; E. coli isolate 5 (Table 3)): Sensitive; Traditional Culture Result (Escherichia coli [2]; E. coli isolate JJ1887): Sensitive; Molecular Antibiotic Susceptibility Result [3, 5]: Sensitive (Antimicrobial wells with pathogen load detected below the control wells (typically >2 cycle thresholds later) may be reported as Sensitive); Ct ([3]; E. coli, clinical sample of r10-r24, Ct Control Avg 18.112): 26.499; Molecular Antibiotic Susceptibility Result [3, 6]: Sensitive (Antimicrobial wells with pathogen load detected below the control wells (typically >2 cycle thresholds later) may be reported as Sensitive); Ct ([3]; E. coli, clinical sample of r158-r172, Ct Control Avg 20.146): 30.693; Molecular Antibiotic Susceptibility Result [3, 7]: Sensitive (Antimicrobial wells with pathogen load detected below the control wells (typically >2 cycle thresholds later) may be reported as Sensitive); Ct ([3]; K. aerogenes, clinical sample of r136-r150, Ct Control Avg 19.994): 32.586; Molecular Antibiotic Susceptibility Result [3, 8]: Sensitive (Antimicrobial wells with pathogen load detected below the control wells (typically >2 cycle thresholds later) may be reported as Sensitive); Ct ([3]; K. pneumoniae, clinical sample of r121-r135, Ct Control Avg 24.272): 34.274; Molecular Antibiotic Susceptibility Result [3, 9]: Sensitive (Antimicrobial wells with pathogen load detected below the control wells (typically >2 cycle thresholds later) may be reported as Sensitive); Ct ([3]; M. morganii, clinical sample of r55-r69, Ct Control Avg 28.86): 36.138; Molecular Antibiotic Susceptibility Result [3, 10]: Sensitive (Antimicrobial wells with pathogen load detected below the control wells (typically >2 cycle thresholds later) may be reported as Sensitive); Ct ([3]; M. morganii, clinical sample of r70-r84, Ct Control Avg 27.053): Undet; Molecular Antibiotic Susceptibility Result [3, 11]: Sensitive (Antimicrobial wells with pathogen load detected below the control wells (typically >2 cycle thresholds later) may be reported as Sensitive); Ct ([3]; P. mirabilis, clinical sample of r25-r39, Ct Control Avg 26.064): 28.92; Molecular Antibiotic Susceptibility Result [3, 12]: Sensitive (Antimicrobial wells with pathogen load detected below the control wells (typically >2 cycle thresholds later) may be reported as Sensitive); Ct ([3]; P. mirabilis, clinical sample of r40-r54, Ct Control Avg 26.987): 33.895; Molecular Antibiotic Susceptibility Result [4, 5]: Sensitive (Antimicrobial wells with pathogen load detected below the control wells (typically >2 cycle thresholds later) may be reported as Sensitive); Ct ([4]; E. coli, clinical sample of r10-r24, Ct control avg 12.97): 24.816; Molecular Antibiotic Susceptibility Result [4, 6]: Sensitive (Antimicrobial wells with pathogen load detected below the control wells (typically >2 cycle thresholds later) may be reported as Sensitive); Ct ([4]; E. coli, clinical sample of r158-r172, Ct control avg 12.894): 29.34; Molecular Antibiotic Susceptibility Result [4, 7]: Sensitive (Antimicrobial wells with pathogen load detected below the control wells (typically >2 cycle thresholds later) may be reported as Sensitive); Ct ([4]; K. aerogenes, clinical sample of r136-r150, Ct control avg 13.854): 30.839; Molecular Antibiotic Susceptibility Result [4, 8]: Sensitive (Antimicrobial wells with pathogen load detected below the control wells (typically >2 cycle thresholds later) may be reported as Sensitive); Ct ([4]; K. pneumoniae, clinical sample of r121-r135, Ct control avg […]): 28.974; Molecular Antibiotic Susceptibility Result [4, 9]: Sensitive (Antimicrobial wells with pathogen load detected below the control wells (typically >2 cycle thresholds later) may be reported as Sensitive); Ct ([4]; M. morganii, clinical sample of r55-r69, Ct control avg 12.09): 13.986; Molecular Antibiotic Susceptibility Result [4, 10]: Sensitive (Antimicrobial wells with pathogen load detected below the control wells (typically >2 cycle thresholds later) may be reported as Sensitive); Ct ([4]; M. morganii, clinical sample of r70-r84, Ct control avg 11.677): 28.975; Molecular Antibiotic Susceptibility Result [4, 11]: Sensitive (Antimicrobial wells with pathogen load detected below the control wells (typically >2 cycle thresholds later) may be reported as Sensitive); Ct ([4]; P. mirabilis, clinical sample of r25-r39, Ct control avg 11.801): 30.658; Molecular Antibiotic Susceptibility Result [4, 12]: Sensitive (Antimicrobial wells with pathogen load detected below the control wells (typically >2 cycle thresholds later) may be reported as Sensitive); Ct ([4]; P. mirabilis, clinical sample of r40-r54, Ct control avg 10.06): 30.24
